Results published in patent publication US7504537B2, “Hydroxamic acid derivative and MMP inhibitor containing the same as active ingredient” (Dainippon Sumitomo Pharma Co., Ltd., priority 2001, dated 2009).

Tests used:
MMP-13 = target: T1, MMP-13 (Homo sapiens, UniProt P45452); assay: Test 2 Test on MMP-13 inhibition activity (fluorogenic peptide substrate); type: biochemical; details: activated MMP-13, 37° C.
T1 construct: a fragment of 767 bp encoding original 84 amino acids of complete MMP-13 and encoding 164 amino acids; made in house; host or cells: E. coli BL21 (DE3), pET11a
Text: Test 2 Test on MMP-13 Inhibition Activity
In order to subcloning C-terminal truncated cDNA in which the cDNA encodes procollagenase-3 (proMMP-13) (J. Biol. Chem., 269(24), 16766-16773 (1994)), two synthesized oligonucleotide primer fragments: • (5′-[…]-3′ and 5′-[…]-3′: In former the sequence for specific NdeI site (under line) including first methionine is included, and in latter terminal codon and BamHI site (under lined) are included.) were used with human cartilage cell cDNA library for PCR. Due to these primers and Pfu DNA polymelase (STRATAGENE) for PCR, there was obtained a fragment of 767 bp encoding original 84 amino acids of complete MMP-13 and encoding 164 amino acids. The said fragment was cut out with digestion by NdeI and BamHI, and the fragment was annealed to NdeI site and BamHI site of pET11a (STRATAGENE). The recombinant plasmid was transformed into E. coli BL21 (DE3) and the bacteria were cultivated. The crude cell extract was prepared according to the method of Biochemistry. The said extract was dialyzed with 20 mM Tris-HCl (pH 7.2)/5 mM CaCl2/0.02% NaN3 solution, treated with SP-sepharose HP column (1.6×10 cm, Amasham-Pharmacia biotec), and the eluting was carried out by liner gradient from 0 to 0.3 m of sodium chloride solution (50 ml) (partially purified proMMP-13 was eluted at about 0.2M.) The eluted fraction was dialyzed with 20 mM Tris-HCl (pH 7.9)/5 mM CaCl2/200 mM (NH4)2SO4/0.02% NaN3 solution, treated with phenylsepharose HP column (1.6×5 cm, Amersham-Pharmacia biotec), and the eluting was carried out by liner gradient from 0.2M to 0M sulfuric acid ammonium solution (purified proMMP-13 was eluted at about 50 mM.). The eluted fraction was concentrated by YM-5 ultrafilter membrane, and activated by 4-aminophenyl mercuric acetate. Activated MMP-13 was treated with gel filtration chromatography in accordance with the method of Biochemistry to be separated from propeptide. Inhibiting Test Method
Enzyme activity test was carried out by the method of G. Knight (FEBS Lett., 296(3), 263-266 (1992)).
A mixture of activated MMP-13 (20 nM, 10 μl), buffer solution (70 μl, pH 7.5 solution containing 100 mM Tris-HCl solution, 10 mM calcium chloride solution, 100 mM sodium chloride solution and 0.05% Briji-35 solution), MOCAc-Pro-Leu-Gly-Leu-A2pr(DNP)-Ala-Arg-NH2 in 0.1% DMSO solution (100 μM, 10 μl) and a test compound in DMSO solution was incubated for 1.5 hours at 37° C. The mixture was put on a 96 well-plate (100 μl/wel), and the plate was incubated at 37° C. The enzyme activity in the presence of the compound was measured based on fluorescence intensity (λex 320 nm, λem 405 nm), and IC50 was calculated.

MMP-9 = MMP-9 (Homo sapiens, UniProt P14780); assay: Test 4 MMP-9 inhibiting activity test (biotin labeled gelatin); type: biochemical; details: activated human MMP-9, biotin labeled gelatin; read-out: MMP-9 inhibition activity value
MMP-9, sequence (P14780 107-707 limits assumed): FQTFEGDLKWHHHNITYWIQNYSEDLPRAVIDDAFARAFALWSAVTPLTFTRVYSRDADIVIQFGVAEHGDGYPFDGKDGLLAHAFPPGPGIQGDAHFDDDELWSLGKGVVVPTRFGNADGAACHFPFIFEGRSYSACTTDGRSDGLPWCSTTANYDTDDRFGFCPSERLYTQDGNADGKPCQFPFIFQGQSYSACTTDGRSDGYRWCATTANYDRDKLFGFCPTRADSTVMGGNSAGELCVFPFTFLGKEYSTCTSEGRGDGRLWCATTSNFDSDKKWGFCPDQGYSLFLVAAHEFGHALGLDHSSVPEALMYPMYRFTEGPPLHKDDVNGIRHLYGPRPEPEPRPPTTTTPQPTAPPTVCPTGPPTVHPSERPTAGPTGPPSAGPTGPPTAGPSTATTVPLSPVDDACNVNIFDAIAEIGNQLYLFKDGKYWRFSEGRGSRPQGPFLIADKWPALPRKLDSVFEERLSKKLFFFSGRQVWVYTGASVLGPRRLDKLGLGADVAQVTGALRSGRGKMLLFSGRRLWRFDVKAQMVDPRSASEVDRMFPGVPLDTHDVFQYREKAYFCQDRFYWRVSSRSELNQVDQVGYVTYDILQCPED
Protocol: Test 4 MMP-9 Inhibiting Activity Test
A mixture of buffer solution (190 μl; pH 7.5 solution containing 50 mM Tris-HCl solution, 0.5 m sodium chloride solution and 5 mM calcium chloride solution), human MMP-9 (10 μl) and trypsin solution (20 μl; trypsin 3 mg in activated buffer (5 ml)) was incubated at 37° C. for 10 minutes. Thereto was added aprotinine solution (20 μl; aprotinine (3 mg) in buffer (5 ml)) and the mixture was incubated at 37° C. for 10 minutes, followed by addition of buffer (2 ml). The mixture was preserved under cooling with ice until use.
A mixture of DMSO solution (2 μl) containing definite concentration of the compound, biotin labeled gelatin (188 μl) and activated MMP-9 solution (10 μl) was put on a 96 well-assay plate (protein nonabsorbance type), well agitated, and incubated at 37° C. for 1 hour. This solution was transferred to Streptavidin-coating plate, and agitated at 15° C. to 30° C. for 30 minutes. And then the solution was washed with TTC buffer solution (200 μl) three times. Thereto was added Streptavidin-POD (200 μl) and the mixture was agitated at 15° C. to 25° C. for 60 minutes, followed by washing with TTC buffer (200 μl) three times. Then, ABTS solution (200 μl) was added thereto and after standing at room temperature for 40 minutes, furuorescence intensity was measured at 405 nm and IC50 was calculated.
In case of the above test, DMSO (2 μl) was used as a control instead of a sample solution. In the case of a blank, DMSO (2 μl) instead of the sample solution and the solution (10 μl) prepared in the same manner as preparation of […] but without adding 1.2 Uhuman MMP-9, instead of activated MMP-9 solution (10 μl), were used.

Row | SMILES | IC50 (MMP-13) | IC50 (MMP-9)
1 | CCOC(=O)CN(C1(C(=O)NO)CCC1)S(=O)(=O)c1ccc(Oc2ccc(S(C)(=O)=O)cc2)cc1 [Example 46, Ethyl N-{1-[(hydroxyamino)carbonyl]cyclobutyl}-N-({4-[4-(methylsulfonyl)phenoxy]phenyl}sulfonyl)glycinate] | 10.5 nM | > 100 nM
2 | COCCCN(CC(=O)NO)S(=O)(=O)c1ccc(Oc2ccc(S(C)(=O)=O)cc2)cc1 [Example 43, N^1-Hydroxy-N^2-(3-methoxypropyl)-N^2-({4-[4-(methylsulfonyl)phenoxy]phenyl}sulfonyl)glycinamide] | < 0.5 nM | 600 nM
3 | CC(C)CN(C1(C(=O)NO)CCC1)S(=O)(=O)c1ccc(Oc2ccc(S(C)(=O)=O)cc2)cc1 [Example 18, N-Hydroxy-1-[isobutyl({4-[4-(methylsulfonyl)phenoxy]phenyl}sulfonyl)amino]cyclobutanecarboxamide] | 3.1 nM | 500 nM
4 | COc1ccc(Oc2ccc(CC3Sc4ccc(C(=O)O)cc4N(CC(=O)NO)C3=O)cc2)cc1 (centres unmarked) [compound 1, reference compound] | 7.4 nM | > 100 nM
5 | CCOC(=O)CN(CC(=O)NO)S(=O)(=O)c1ccc(Oc2ccc(S(C)(=O)=O)cc2)cc1 [Example 22, Ethyl N-{[(hydroxyamino)carbonyl]methyl}-N-({4-[4-(methylsulfonyl)phenoxy]phenyl}sulfonyl)-glycinate] | 1.9 nM | 1400 nM
6 | CS(=O)(=O)c1ccc(Oc2ccc(CC3Sc4ccc(C(=O)O)cc4N(CC(=O)NO)C3=O)cc2)cc1 (centres unmarked) [Example 50] | 3 nM | 244 nM
7 | CCOC(=O)CCN(C1(C(=O)NO)CCCC1)S(=O)(=O)c1ccc(Oc2ccc(S(C)(=O)=O)cc2)cc1 [Example 26, Ethyl N-{1-[(hydroxyamino)carbonyl]cyclopentyl}-N-({4-[4-(methylsulfonyl)phenoxy]phenyl}sulfonyl)-β-alaninate] | 1.9 nM | > 100 nM
8 | CCOCCN(C1(C(=O)NO)CCCC1)S(=O)(=O)c1ccc(Oc2ccc(S(C)(=O)=O)cc2)cc1 [Example 45, 1-[(2-Ethoxyethyl)({4-[4-(methylsulfonyl)phenoxy]phenyl}sulfonyl)amino]-N-hydroxycyclopentanecarboxamide] | 0.6 nM | > 100 nM
9 | CC(C)CN(C1(C(=O)NO)CCCC1)S(=O)(=O)c1ccc(Oc2ccc(S(C)(=O)=O)cc2)cc1 [Example 2, N-hydroxy 1-[isobutyl({4-[4-(methylsulfonyl)phenoxy]phenyl}sulfonyl)amino]cyclopentanecarboxamide] | 5.7 nM | 300 nM
10 | CS(=O)(=O)c1ccc(Oc2ccc(S(=O)(=O)N(CC(=O)O)CC(=O)NO)cc2)cc1 [Example 24, N-{[(Hydroxyamino)carbonyl]methyl}-N-({4-[4-(methylsulfonyl)phenoxy]phenyl}sulfonyl)-glycine] | 16.3 nM | > 10000 nM
11 | COCCN(CC(=O)NO)S(=O)(=O)c1ccc(Oc2ccc(S(C)(=O)=O)cc2)cc1 [Example 44, N^1-Hydroxy-N^2-(2-methoxyethyl)-N^2-({4-[4-(methylsulfonyl)phenoxy]phenyl}sulfonyl)glycinamide] | 0.5 nM | > 10000 nM
12 | CS(=O)(=O)c1ccc(Oc2ccc(S(=O)(=O)N(CCC(=O)O)CC(=O)NO)cc2)cc1 [Example 36, N-[2-(Hydroxyamino)-2-oxoethyl]-N-({4-[4-(methylsulfonyl)phenoxy]phenyl}sulfonyl)-β-alanine] | 3.81 nM | > 100 nM
13 | CCOC(=O)CCN(C1(C(=O)NO)CCOCC1)S(=O)(=O)c1ccc(Oc2ccc(S(C)(=O)=O)cc2)cc1 [Example 31, Ethyl N-{4-[(hydroxyamino)carbonyl]tetrahydro-2H-pyran-4-yl}-N-({4-[4-(methylsulfonyl)phenoxy]phenyl}sulfonyl)-β-alaninate] | 11.2 nM | 4900 nM
14 | CC(C)OCCN(CC(=O)NO)S(=O)(=O)c1ccc(Oc2ccc(S(C)(=O)=O)cc2)cc1 [Example 3, N^1-hydroxy-N^2-(2-isopropoxyethyl)-N^2-({4-[4-(methylsulfonyl)phenoxy]phenyl}sulfonyl)glycinamide] | 0.5 nM | 1000 nM
15 | CS(=O)(=O)c1ccc(Oc2ccc(S(=O)(=O)N(CCC(=O)O)C3(C(=O)NO)CCCC3)cc2)cc1 [Example 27, N-{1-[(Hydroxyamino)carbonyl]cyclopentyl}-N-({4-[4-(methylsulfonyl)phenoxy]phenyl}sulfonyl)-β-alanine] | 21.3 nM | > 10000 nM
16 | CC(C)(C(=O)NO)N(Cc1ccccc1)S(=O)(=O)c1ccc(Oc2ccc(S(C)(=O)=O)cc2)cc1 [Example 10, N′^2′-Benzyl-N′^1′-hydroxy-2-methyl-N′^2′-({4-[4-(methylsulfonyl)phenoxy]phenyl}sulfonyl)alaninamide] | 34.4 nM | 6800 nM
17 | CS(=O)(=O)c1ccc(Oc2ccc(S(=O)(=O)N(CC(=O)NO)Cc3ccncc3)cc2)cc1 [Example 42, N′^1′-Hydroxy-N′^2′-({4-[4-(methylsulfonyl)phenoxy]phenyl}sulfonyl)-N′^2′-(4-pyridinylmethyl)glycinamide] | 4.02 nM | 4300 nM
18 | CS(=O)(=O)c1ccc(Oc2ccc(S(=O)(=O)NC3(C(=O)NO)CCC3)cc2)cc1 [Example 48, N-Hydroxy-1-[({4-[4-(methylsulfonyl)phenoxy]phenyl}sulfonyl)amino]cyclobutanecarboxamide] | 6.9 nM | > 100 nM
19 | CC(C)CN(C1(C(=O)NO)CCOCC1)S(=O)(=O)c1ccc(Oc2ccc(S(C)(=O)=O)cc2)cc1 [Example 15, N-Hydroxy-4-[isobutyl({4-[4-(methylsulfonyl)phenoxy]phenyl}sulfonyl)amino]tetrahydro-2H-pyrane-4-carboxamide] | 24.6 nM | 700 nM
20 | CS(=O)(=O)c1ccc(Oc2ccc(S(=O)(=O)N(Cc3ccccc3)C3(C(=O)NO)CCOCC3)cc2)cc1 [Example 12, 4-[Benzyl({4-[4-(methylsulfonyl)phenoxy]phenyl}sulfonyl)amino]-N-hydroxytetrahydoro-2H-pyrane-4-carboxamide] | 4 nM | < 100 nM
21 | CCOC(=O)CN(C1(C(=O)NO)CCCC1)S(=O)(=O)c1ccc(Oc2ccc(S(C)(=O)=O)cc2)cc1 [Example 23, Ethyl N-{1-[(hydroxyamino)carbonyl]cyclopentyl}-N-({4-[4-(methylsulfonyl)phenoxy]phenyl}sulfonyl)glycinate] | 4.1 nM | 2300 nM
22 | CS(=O)(=O)c1ccc(Oc2ccc(S(=O)(=O)NCC(=O)NO)cc2)cc1 [Example 13, N′^1′-Hydroxy-N′^2′-({4-[4-(methylsulfonyl)phenoxy]phenyl}sulfonyl)glycinamide] | 10.8 nM | 4700 nM
